What was measured:
Type in all cases: biochemical
[1] = target: T1, P. aeruginosa isoform of DDAH (Pseudomonas aeruginosa, UniProt Q9I4E3); test: Inhibition of P. aeruginosa DDAH by reversible inhibitors; details: at concentrations up to 1 mM
T1 sequence (Q9I4E3 1-254): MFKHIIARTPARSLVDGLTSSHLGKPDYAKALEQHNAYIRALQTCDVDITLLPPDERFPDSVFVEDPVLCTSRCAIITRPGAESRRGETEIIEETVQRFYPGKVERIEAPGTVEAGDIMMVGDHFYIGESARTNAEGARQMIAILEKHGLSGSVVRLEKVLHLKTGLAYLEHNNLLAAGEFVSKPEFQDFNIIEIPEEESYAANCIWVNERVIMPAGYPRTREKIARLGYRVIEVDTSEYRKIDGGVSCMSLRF

human DDAH-1 [2] = target: T2, human DDAH-1 (Homo sapiens, UniProt O94760); test: Concentration-response and mode-of-inhibition assays for IC50 and Ki; details: for Hill Coefficient: concentration-response plot, substrate 50 µM; for Mode of inhibition: varying substrate and inhibitor, large effect on KM, not on kcat
human DDAH-1 [3] = target: T2, human DDAH-1; test: Reversibility upon dilution into excess substrate; details: enzyme-inhibitor mixture diluted into excess substrate
human DDAH-1 [4] = target: T2, human DDAH-1; test: Time-dependent inactivation of human DDAH-1

T2 sequence (O94760 whole entry): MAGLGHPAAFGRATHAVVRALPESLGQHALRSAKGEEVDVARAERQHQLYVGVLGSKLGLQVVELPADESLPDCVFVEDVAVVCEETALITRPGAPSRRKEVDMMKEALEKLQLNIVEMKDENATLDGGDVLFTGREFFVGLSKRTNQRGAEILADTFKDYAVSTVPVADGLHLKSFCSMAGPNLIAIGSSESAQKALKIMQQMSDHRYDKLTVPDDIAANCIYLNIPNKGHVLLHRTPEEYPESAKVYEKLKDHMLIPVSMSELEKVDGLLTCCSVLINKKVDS

Inhibition of P. aeruginosa DDAH [1] | Hill Coefficient (human DDAH-1 [2]) | Mode of inhibition (human DDAH-1 [2]) | Reversibility of inhibition (human DDAH-1 [3]) | kinact/KI (human DDAH-1 [4]) | SMILES | Ligand Efficiency (human DDAH-1 [2]; calculated from experimental Ki values)
did not show any inhibition | 1.5 ± 0.2 | competitive | full activity was rapidly regained |  | CCc1nc2ccccc2[nH]1 [Compound 12, 2-ethyl-benzimidazole] | 
 |  |  |  | ~0.05 M⁻¹ s⁻¹ | Cc1cc(Br)ccn1 [Compound 10, 2-methyl-4-bromopyridine] | 
 | 1.0 ± 0.3 | competitive | full activity was rapidly regained |  | NCCSc1nc2ccccc2o1 [Compound 13, 2-(1,3-benzoxazol-2-ylthio)ethanamine] | 0.3 kcal / mol / heavy (non-hydrogen) atom
 |  |  |  | ~0.04 M⁻¹ s⁻¹ | OCc1cc(Cl)ccn1 [Compound 11, 2-hydroxymethyl-4-chloropyridine] | 

— paper PMC3444674 (Bioorganic & medicinal chemistry, 2012)
